According to PMC8959576 (Frontiers in Immunology, 2022):

Tests used:
[1] = target: T1, HEK-Blue mTLR2 cells (TLR2) (Mus musculus, UniProt Q9QUN7); assay: TLR2 signaling assay (SEAP activity, HEK-Blue detection); format: cell-based; conditions: 14 h at 37°C, read at 620 nm, n=3, Figure 2A
T1 construct: host or cells: HEK-Blue mTLR2 cells (HEK293-derived reporter line)
Experimental: HEK-Blue™ detection was prepared according to manufacturer’s instruction. Briefly, the lipopeptides were added into a flat-bottom 96-well plate (20μL per well) and endotoxin-free water was used as a negative control. Then HEK-Blue™ mTLR2 cells were suspended in HEK-Blue™ detection and added into the plate (180μL per well, 5×10^4 cells). After incubation at 37°C for 14h, the SEAP activity was measured by a spectrophotometer at 620nm.

SARS-CoV-2 pseudovirus = conditions: in vivo
BALB/c mice [2] = assay: Intranasal immunization with OVA plus lipopeptide, specific antibody ELISA; conditions: for serum OVA-specific IgA / serum OVA-specific IgG: intranasal OVA (10 μg) plus lipopeptide, day 0, 14, 28, sera 14 days after final immunization, compared with OVA alone; for serum OVA-specific IgA / serum OVA-specific IgG / serum OVA-specific IgG response compared with Pam2CSK4 / vaginal OVA-specific IgG compared with Pam2CSK4: n=5; for serum OVA-specific IgG response compared with Pam2CSK4 / serum OVA-specific IgG2a levels: intranasal OVA plus lipopeptide; for serum OVA-specific IgG2a levels: n=5, Figure 4H; for OVA-specific sIgA in BALF compared with Pam2CSK4: n=5, Figures 5J, K; for vaginal OVA-specific IgG compared with Pam2CSK4: vaginal wash, only adjuvanted with LP2-2 reached significance
Experimental: (§2) For OVA immunization, mice were divided into 7 groups randomly. Mice were the mice were anesthetized with pentobarbital sodium (50 mg/kg) and then intranasally immunized with PBS, OVA (10 μg), OVA (10 μg) plus one of the following lipopeptides: LP1-30, LP1-34, LP2-2 and LP2-3 or OVA plus Pam2CSK4 on day 0, 14, 28. […] For SARS-CoV-2 recombinant RBD (rRBD) immunization, mice were intranasally immunized at two-week intervals with PBS, rRBD, rRBD plus LP1-34, rRBD plus LP2-2 or rRBD plus Pam2CSK4. Two weeks post the final immunization, mice were sacrificed and sera, saliva, stomach homogenates, intestinal lavage fluid and vaginal wash were collected for further analysis.
(§3) Specific IgG and sIgA levels were determined by standard indirect ELISA. 96-well flat bottom plates were coated with OVA or rRBD and incubated overnight at 4°C. After blocking with 5% BSA in PBST, the diluted samples were added into the plates and incubated at 37°C for 1h. HRP-conjugated goat anti-mouse IgG, IgG1, IgG2a or IgA was used as a secondary antibody. TMB substrate solution was added each well and incubated about 5-10 min. Then, the reaction was ended by adding stop solution. Finally, the optical density was detected by at 450nm in a micro-plate reader (Thermo Scientific).

RBD-ACE2 interaction = assay: SARS-CoV-2 neutralizing antibody detection (ELISA) after rRBD immunization; conditions: for rRBD-induced SARS-CoV-2 neutralizing antibody in sera (inhibition of RBD-ACE2 interaction): n=5, compared with rRBD alone group, Figures 9A, B
Experimental: For SARS-CoV-2 recombinant RBD (rRBD) immunization, mice were intranasally immunized at two-week intervals with PBS, rRBD, rRBD plus LP1-34, rRBD plus LP2-2 or rRBD plus Pam2CSK4. Two weeks post the final immunization, mice were sacrificed and sera, saliva, stomach homogenates, intestinal lavage fluid and vaginal wash were collected for further analysis.
SARS-CoV-2 neutralizing antibody detection was performed according to the manufacturer’s instruction (zybio). Briefly, the diluted sera, BALF or nasal wash mixed with HRP-conjugated RBD were added into the hACE2-coated plate, and then the plate was incubated at 37°C for 1h. After washing the plate, the TMB substrate was added and incubated at 37°C for 10min. Finally, the reaction was ended by adding the stop solution and the absorbance was measured with a micro-plate reader (Thermo Scientific) at 450 nm.

BALB/c mice [3] = assay: Intranasal immunization with SARS-CoV-2 rRBD plus lipopeptide, specific antibody ELISA; conditions: for RBD-specific serum IgG / RBD-specific serum IgA: intranasal rRBD with or without lipopeptide; for RBD-specific serum IgG: n=5, Figure 8A; for RBD-specific serum IgA: n=5, Figure 8B; for RBD-specific serum IgG1 compared with rRBD alone group: n=5, Figure 8C
Experimental: as §2, §3

BMDCs [4] = assay: BMDC maturation surface markers by flow cytometry; format: cell-based, mouse; conditions: BMDCs stimulated 2 days, FACS, Figures 3A-D
Experimental: (§1) Bone marrow-derived dendritic cells (BMDCs) were isolated using methods described previously ([26], [27]). Briefly, the cells were obtained by flushing the femurs of female BALB/C mice, then differentiated in RPMI 1640 medium containing 10% FBS and supplemented with IL-4 (10ng/mL) and GM-CSF (10ng/mL) for 7 days at 37°C in 5% CO2.
BMDCs were collected after being treated with each lipopeptidet for 48h. The expressions of surface markers on BMDCs were detected by FCM with a FACS Canto II (BD Biosciences). The cells were stained with CD11c-FITC (Biolegend, 117306), CD86-PerCP (Biolegend, 105026), CD80-APC (Biolegend, 104714) and CD40-PE (Biolegend, 124610) at 4°C for 30min. After washing with PBS, the expression of costimulatory molecules was detected by flow cytometer.

BMDCs [5] = assay: Cytokines assay (ELISA of BMDC supernatants); format: cell-based, mouse; conditions: lipopeptide 1 μg/mL, 48 h, n=3, Figure 3G
Experimental: as §1
BMDCs (4 × 10^6 cells/well in 4mL RMPI-1640 medium) were stimulated with either synthetic lipopeptide (1 μg/mL) or PBS for 48 h. The expressions of IL-1β, TNF-α and IL-12 were analyzed by ELISA kit according to the manufacturer’s instructions.

TLR2 = conditions: cited from earlier work
Description: In recent years, a variety of lipopeptides have been designed and synthesized to exert adjuvant effects through activating TLR2 ([18]–[20]). […] The TLR2 activity of FSL-1 can reach 4 times that of MALP-2, while Pam2CSK4 is the ...

[6] = cited from earlier work
Description: A number of studies have shown that lipopeptides have a significant mucosal adjuvant effect ([36]–[38]). MALP-2, the mycoplasma-derived lipopeptide, elevated the level of sIgA in BALF and vaginal lavages when intranasal co-administration with a soluble antigen ([25]).

BALB/c mice [7] = format: in vivo, mouse; conditions: splenic lymphocytes, 10 μg/mL peptide, 48 h, n=5, Figure 6
BMDCs [8] = assay: Cell viability assay (MTT); format: cell-based, mouse; conditions: test concentrations 10-200μg/mL, 48 h, n=3, Figure S3A
Experimental: The cell viability was analyzed by MTT assay. Briefly, BMDCs were cultured with gradient dilutions of each lipopeptide for 48 h. After that, 20 μL of a MTT solution (5 mg/ml) were added per well and incubated at 37°C for 4 h. Then, the mixture was removed from the well and 100 μL DMSO were added. The absorbance was detected at a wavelength of 570 nm. % surviving cells = Mean optical absorption of cells exposed to the lipopeptide/Mean optical absorption of control cells × 100.
as §1

T1 sequence (Q9QUN7 25-784): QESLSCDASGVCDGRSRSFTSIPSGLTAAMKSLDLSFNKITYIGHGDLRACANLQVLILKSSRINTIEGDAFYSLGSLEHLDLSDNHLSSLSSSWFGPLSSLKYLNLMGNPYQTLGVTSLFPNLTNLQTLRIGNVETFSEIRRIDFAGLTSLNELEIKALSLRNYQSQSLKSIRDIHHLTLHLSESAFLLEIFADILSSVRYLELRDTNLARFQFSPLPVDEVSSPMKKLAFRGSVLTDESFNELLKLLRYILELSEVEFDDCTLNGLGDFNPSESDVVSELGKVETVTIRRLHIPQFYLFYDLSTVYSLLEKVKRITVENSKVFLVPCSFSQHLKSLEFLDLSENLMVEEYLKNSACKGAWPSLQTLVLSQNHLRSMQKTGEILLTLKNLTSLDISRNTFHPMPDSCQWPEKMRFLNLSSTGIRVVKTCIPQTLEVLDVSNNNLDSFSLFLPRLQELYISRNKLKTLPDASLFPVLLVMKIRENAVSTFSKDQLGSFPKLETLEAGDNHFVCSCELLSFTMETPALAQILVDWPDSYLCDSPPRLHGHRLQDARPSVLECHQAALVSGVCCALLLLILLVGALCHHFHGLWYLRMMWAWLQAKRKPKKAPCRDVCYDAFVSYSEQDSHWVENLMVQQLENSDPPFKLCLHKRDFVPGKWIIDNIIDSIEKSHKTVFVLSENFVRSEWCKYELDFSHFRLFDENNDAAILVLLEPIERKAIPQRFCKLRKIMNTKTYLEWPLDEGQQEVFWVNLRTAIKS

Substance	SEAP activity compared with Pam2CSK4 [1]	SARS-CoV-2 pseudovirus neutralizing antibody titers in serum (SARS-CoV-2 pseudovirus)	serum OVA-specific IgA (BALB/c mice [2])	serum OVA-specific IgG (BALB/c mice [2])	serum OVA-specific IgG2a levels (BALB/c mice [2])	vaginal OVA-specific IgG compared with Pam2CSK4 (BALB/c mice [2])	rRBD-induced SARS-CoV-2 neutralizing antibody in sera (inhibition of RBD-ACE2 interaction) (RBD-ACE2 interaction)	RBD-specific serum IgG (BALB/c mice [3])	RBD-specific serum IgA (BALB/c mice [3])	RBD-specific serum IgG1 compared with rRBD alone group (BALB/c mice [3])	RBD-specific serum IgG2a compared with rRBD alone group (BALB/c mice [3]; n=5, Figure 8D)	further results
Pam2Cys-SEFAHPRHG [LP2-2]	more increased SEAP activity than Pam2CSK4	significantly augment	significantly increased	significantly increased	elevated	higher level	significantly elevated	significantly improved	significantly improved	elevated	elevated	serum OVA-specific IgG response compared with Pam2CSK4 (BALB/c mice [2]): more robust; OVA-specific sIgA in BALF compared with Pam2CSK4 (BALB/c mice [2]): higher level
Pam2Cys-SLARRNDTN [LP1-30]	more increased SEAP activity than Pam2CSK4		significantly increased	significantly increased		higher level						stimulating effect on costimulatory molecule expression of BMDCs compared with Pam2CSK4 (BMDCs [4]): more potent stimulating effect; levels of IL-12 from BMDCs compared with Pam2CSK4 (BMDCs [5]): higher levels; anti-lipopeptide IgG antibodies in sera (BALB/c mice [2]; OVA+LP1-30 group, ELISA, n=5, Figure S4): did not reach statistical significance
Pam2Cys-SEFQATYAP [LP2-3]	more increased SEAP activity than Pam2CSK4		significantly increased	significantly increased	elevated							serum OVA-specific IgG response compared with Pam2CSK4 (BALB/c mice [2]): more robust
Pam2Cys-SHYAPLPDS [LP1-34]	more increased SEAP activity than Pam2CSK4	significantly augment	significantly increased	significantly increased		higher level	significantly elevated	significantly improved	significantly improved	elevated	elevated	levels of IL-12 from BMDCs compared with Pam2CSK4 (BMDCs [5]): higher levels; OVA-specific sIgA in BALF compared with Pam2CSK4 (BALB/c mice [2]): higher level; ability of BALF and nasal wash to inhibit RBD interaction with ACE2 (RBD-ACE2 interaction; n=5, Figures 9C, D): improved; ability to enhance the level of RBD-specific mucosal sIgA and IgG compared with Pam2CSK4 (BALB/c mice [3]; intranasal rRBD plus lipopeptide, n=5): stronger; rank of RBD-specific IgG2a response among LP1-34, LP2-2 and Pam2CSK4 (BALB/c mice [3]; n=5, Figure 8D): highest
FSL-1												TLR2 activity of FSL-1 relative to that of MALP-2 (TLR2): 4 times; EV71-specific IgG and IgA in serum, nasal washes, BALF, and feces compared with the control group ([6]; intranasal, inactivated EV71 vaccine plus FSL-1): higher level
FSL-2												TLR2 activity of FSL-2 relative to that of FSL-1 (TLR2): 80%
Pam2CSK4 [reference compound]		significantly augment			elevated		significantly elevated	significantly improved	significantly improved	elevated	elevated	IFN-γ-forming OVA257-264-specific CD8+ T cell response (BALB/c mice [7]): slightly elevated; IFN-γ-forming OVA323-339-specific CD4+ T cell response (BALB/c mice [7]): slightly elevated; TLR2 agonist potency rank among the four lipopeptides (FSL-1, FSL-2, MALP-2, Pam2CSK4) (TLR2): most potent TLR2 agonist
Pam2Cys-SKHANNTHA [LP1-14, novel synthetic lipopeptide]	more increased SEAP activity than Pam2CSK4											cytotoxicity on BMDCs (MTT) (BMDCs [8]): slightly cytotoxic
MALP-2												sIgA in BALF and vaginal lavages ([6]; intranasal co-administration with a soluble antigen): elevated
